# In PMC6838151 (Scientific Reports, 2019):
# Entries after “also recorded” stand apart in the source; their conditions may differ.
# Key:
# hASCs = experiment: Confocal imaging of mitochondrial network (MitoRed) and F-actin (Phalloidin Atto 590) in hASCs; type: cell-based, human; settings: 20 µM, 24 h
# Description: The mitochondrial network was visualized using MitoRed staining. After 24-hours treatment with either Ke, KeP or KeOP, the media were removed and replaced with MitoRed dye in 1:1000 dilution in fresh complete media. Cells were incubated for 30 minutes at 37 °C, then washed with Phosphate Buffered Saline (PBS), fixed with 4% paraformaldehyde (PFA) solution, washed three times and nuclei were counterstained with diamidino-2-phenylindole (DAPI).
# In order to perform F-actin imaging, cells were fixed with 4% PFA solution, washed with PBS and then permeabilized using 0.5% TX-100 (incubation 15 minutes, room temperature). The cells were rinsed and incubated with Phalloidin-Atto 590 solution in PBS (dilution 1:1000) at 37 °C for 30 minutes in the dark. After washing, the cells were counterstained with DAPI.
# Cells were observed and images were taken using confocal microscopy performed with a Leica TCS-SP8 laser scanning confocal microscope. Data were further processed with the use of ImageJ software.
# [1] = tested on: hASCs (human adipose-derived stromal cells); experiment: Cytotoxicity IC50, TOX-8 resazurin assay, hASCs, 24 h; type: cell-based; settings: hASCs, TOX-8 assay, 24 h
# Description: Human Adipose Tissue-derived Stem Cells (hASCs) were isolated from subcutaneous adipose tissue fragments harvested from non-diabetic female donors (age range 33–38, n = 2) during standard surgical procedure of total hip arthroplasty. Immediately after collection of tissue, the samples were placed in sterile tissue-transport medium (Hank’s Balanced Salt Solution (HBSS) supplemented with 1% Penicillin/Streptomycin/Amphotericin B solution (P/S/A). Mesenchymal stromal cell isolation was performed using enzymatic digestion of extracellular matrix with collagenase type I. Before digestion, tissue specimens were washed twice with HBSS and incubated in collagenase type I solution (1 mg/mL) at 37 °C for 40 min. The digest was subsequently centrifuged (1200 × g; 10 minutes; room temperature) and the cell pellet was resuspended in Dulbecco’s modified Eagle’s medium (DMEM) with Nutrient F-12 Ham, 10% of Fetal Bovine Serum (FBS), and 1% of P/S/A, transferred to a culture flask, and kept in culture under optimal conditions (37 °C in a humidified atmosphere of 5% CO2). The medium was refreshed every 2–3 days. At 80–90% confluence, the cells were passaged using trypsin solution (TrypLE Express, Life Technologies, California, USA). At passage 3, hASCs were collected and cellular phenotype was confirmed by the high expression of markers CD44, CD29, CD73, CD105 and low expression of CD45. Moreover, the trilineage differentiation capacity of ASCs was confirmed as previously described.
# The IC50 values were determined using in vitro Toxicology TOX-8 Assay Kit (resazurin based) according to the manufacturer’s protocol. For this assay, cells were seeded in a 96-well plate at a density of 5 × 10^3 cells/well. The cells were pre-incubated in drug-free complete medium for 24 h before adding various concentrations of the compounds to be investigated. Stock solutions of the compounds were prepared in DMSO following serial dilutions in DMEM with Nutrient F-12 Ham complete medium. The cells exposure period was 24 h. After that time media were replaced with 10% v/v resazurin dye solution in fresh complete culture medium. Incubation was carried out for 2 h at 37 °C in the CO2 incubator. Reduction of the dye was measured spectrophotometrically at 600 nm and 690 nm reference wavelength (Epoch, Biotek). Absorbance measurements allowed the determination of viable treated cells relative to untreated controls using the inflection point of a dose-response graph. IC50 values were estimated as duplicates of triplicate readings in two independent experiments.
Compound,mitochondrial membrane potential (MitoRed staining) (hASCs),number of mitochondria (MitoRed staining) (hASCs),"IC50 (cytotoxicity, hASCs viability) [1]"
"Clc1ccc([C@@]2(Cn3ccnc3)OC[C@H](COc3ccc(N4CCN(CP(c5ccccc5)c5ccccc5)CC4)cc3)O2)c(Cl)c1 (racemic) [KeP, Ph2PCH2-Ke]",lowest mitochondrial membrane potential,lowest number of mitochondria,–
"S=P(CN1CCN(c2ccc(OC[C@H]3CO[C@](Cn4ccnc4)(c4ccc(Cl)cc4Cl)O3)cc2)CC1)(c1ccccc1)c1ccccc1 [KeSP, Ph2P(S)CH2-Ke]",–,–,not cytotoxic in the tested concentration range; also recorded: not toxic
